What all share (experiment): Bacterial growth minimal inhibitory concentration (CLSI broth microdilution)
What all share (assay type): cell-based
For orientation: Broth dilution looks for growth in wells or tubes with falling amounts of substance.

One assay has as its system K. pneumoniae A-651. As to conditions: multiply resistant strain (in particular quinolone-resistant), cation-adjusted Mueller-Hinton Broth; for MIC: Klebsiella pneumoniae, A651. As for the experimental part: (§1) Minimal Inhibitory Concentrations (MICs; mg/L) were determined in cation-adjusted Mueller-Hinton Broth by a microdilution method following the description given in “Methods for Dilution Antimicrobial Susceptibility Tests for Bacteria that Grow Aerobically”, Approved standard, 7th ed., Clinical and Laboratory Standards Institute (CLSI) Document M7-A7, Wayne, Pa., USA (2006).
(§2) All Reference Example compounds were tested against several Gram-negative bacteria. K. pneumoniae A-651 is a multiply resistant strain (in particular quinolone-resistant), while E. coli ATCC25922 and P. aeruginosa ATCC27853 are quinolone-sensitive strains. The corresponding antibacterial test results are given in Table 1 hereafter (MICs in mg/L).

The test system of a further assay is P. aeruginosa ATCC27853. The note with it: quinolone-sensitive strain, cation-adjusted Mueller-Hinton Broth; for MIC: Pseudomonas aeruginosa, ATCC27853. As for the experimental part:
as §1, §2

Another assay deals with E. coli ATCC25922. The note with it: quinolone-sensitive strain, cation-adjusted Mueller-Hinton Broth; for MIC: Escherichia coli, ATCC25922. As for the experimental part:
as §1, §2

In brackets after ≈: the same amount, converted by molar mass.

For orientation: MIC means the lowest concentration that inhibits growth of the organism. A lower MIC goes with a more susceptible organism. Turning to `CN1CC(F)(c2ccc(C#Cc3cc4n(c3)C(=O)N(CC[C@](C)(C(=O)NO)S(C)(=O)=O)C4)cc2)C1` [Example 20, (2R)-4-(6-((4-(3-fluoro-1-methylazetidin-3-yl)phenyl)ethynyl)-3-oxo-1H-pyrrolo[1,2-c]imidazol-2(3H)-yl)-N-hydroxy-2-methyl-2-(methylsulfonyl)butanamide], the results for the MIC against K. pneumoniae A-651, in the assay with P. aeruginosa ATCC27853 and in the assay with E. coli ATCC25922 were 0.25 µg/mL (≈ 0.497 µM), 1 µg/mL (≈ 1.99 µM) and 0.125 µg/mL (≈ 0.249 µM), respectively.

Regarding `CN(C)C1(C#CC#Cc2cc3n(c2)C(=O)N(CC[C@](C)(C(=O)NO)S(C)(=O)=O)C3)CC1` [Example 21, (2R)-4-(6-((1-(dimethylamino)cyclopropyl)buta-1,3-diyn-1-yl)-3-oxo-1H-pyrrolo[1,2-c]imidazol-2(3H)-yl)-N-hydroxy-2-methyl-2-(methylsulfonyl)butanamide], the MIC in the assay on K. pneumoniae A-651, with P. aeruginosa ATCC27853 and against E. coli ATCC25922 was 0.5 µg/mL (≈ 1.12 µM) throughout.

`C[C@@](CCN1Cc2cc(C#CC#CC3(COC(=O)N4CC(O)C4)CC3)cn2C1=O)(C(=O)NO)S(C)(=O)=O` [Example 22, (3R)-(1-((2-(4-(hydroxyamino)-3-methyl-3-(methylsulfonyl)-4-oxobutyl)-3-oxo-2,3-dihydro-1H-pyrrolo[1,2-c]imidazol-6-yl)buta-1,3-diyn-1-yl)cyclopropyl)methyl 3-hydroxyazetidine-1-carboxylate]: the MIC with K. pneumoniae A-651 worked out at 4 µg/mL (≈ 7.51 µM); against P. aeruginosa ATCC27853, 4 µg/mL (≈ 7.51 µM); against E. coli ATCC25922, 1 µg/mL (≈ 1.88 µM).

Regarding `CN1CCN(C(=O)OCC2(C#CC#Cc3cc4n(c3)C(=O)N(CC[C@](C)(C(=O)NO)S(C)(=O)=O)C4)CC2)CC1` [Example 23, (3R)-(1-((2-(4-(hydroxyamino)-3-methyl-3-(methylsulfonyl)-4-oxobutyl)-3-oxo-2,3-dihydro-1H-pyrrolo[1,2-c]imidazol-6-yl)buta-1,3-diyn-1-yl)cyclopropyl)methyl 4-methylpiperazine-1-carboxylate], the MIC in the assay on K. pneumoniae A-651 stood at 4 µg/mL (≈ 7.15 µM); in the assay with P. aeruginosa ATCC27853, 8 µg/mL (≈ 14.3 µM); in the assay on E. coli ATCC25922, 4 µg/mL (≈ 7.15 µM).

Take `C[C@@](CCN1Cc2cc(C#CC#CCOC(=O)N3CC(O)C3)cn2C1=O)(C(=O)NO)S(C)(=O)=O` [Example 24, (3R)-5-(2-(4-(hydroxyamino)-3-methyl-3-(methylsulfonyl)-4-oxobutyl)-3-oxo-2,3-dihydro-1H-pyrrolo[1,2-c]imidazol-6-yl)penta-2,4-diyn-1-yl 3-hydroxyazetidine-1-carboxylate]: the MIC in the assay with K. pneumoniae A-651 came to 1 µg/mL (≈ 2.03 µM); in the assay with P. aeruginosa ATCC27853, 1 µg/mL (≈ 2.03 µM); in the assay with E. coli ATCC25922, 0.5 µg/mL (≈ 1.02 µM).

`C[C@@](CCN1Cc2cc(C#Cc3ccc(OCCS(C)(=O)=O)cc3)cn2C1=O)(C(=O)NO)S(C)(=O)=O` [Example 25, (2R)—N-hydroxy-2-methyl-2-(methylsulfonyl)-4-(6-((4-(2-(methylsulfonyl)ethoxy)phenyl)ethynyl)-3-oxo-1H-pyrrolo[1,2-c]imidazol-2(3H)-yl)butanamide]: the figures for the MIC in the assay on K. pneumoniae A-651, in the assay on P. aeruginosa ATCC27853 and in the assay on E. coli ATCC25922 were 0.5 µg/mL (≈ 0.93 µM), 1 µg/mL (≈ 1.86 µM) and 0.125 µg/mL (≈ 0.233 µM), respectively.

Take `C[C@@](CCN1Cc2cc(C#Cc3ccc(CNC(=O)OC4CNC4)cc3)cn2C1=O)(C(=O)NO)S(C)(=O)=O` [Example 26, azetidin-3-yl (3R)-(4-((2-(4-(hydroxyamino)-3-methyl-3-(methylsulfonyl)-4-oxobutyl)-3-oxo-2,3-dihydro-1H-pyrrolo[1,2-c]imidazol-6-yl)ethynyl)benzyl)carbamate]: the minimal inhibitory concentration (MIC) amounted to 8 µg/mL (≈ 14.7 µM) against K. pneumoniae A-651, 4 µg/mL (≈ 7.36 µM) in the assay with P. aeruginosa ATCC27853 and 8 µg/mL (≈ 14.7 µM) with E. coli ATCC25922.

With `CN1CC(OC(=O)NCc2ccc(C#Cc3cc4n(c3)C(=O)N(CC[C@](C)(C(=O)NO)S(C)(=O)=O)C4)cc2)C1` [Example 27, 1-methylazetidin-3-yl (3R)-(4-((2-(4-(hydroxyamino)-3-methyl-3-(methylsulfonyl)-4-oxobutyl)-3-oxo-2,3-dihydro-1H-pyrrolo[1,2-c]imidazol-6-yl)ethynyl)benzyl)carbamate], the figures for the MIC in the assay with K. pneumoniae A-651, in the assay on P. aeruginosa ATCC27853 and against E. coli ATCC25922 were 4 µg/mL (≈ 7.17 µM), 8 µg/mL (≈ 14.3 µM) and 2 µg/mL (≈ 3.59 µM), respectively.

As to `C[C@@](CCN1Cc2cc(C#CC#C[C@@H]3C[C@H]3CN3CCOCC3)cn2C1=O)(C(=O)NO)S(C)(=O)=O` [Example 29, (2R)—N-hydroxy-2-methyl-2-(methylsulfonyl)-4-(6-(((1R,2R)-2-(morpholinomethyl)cyclopropyl)buta-1,3-diyn-1-yl)-3-oxo-1H-pyrrolo[1,2-c]imidazol-2(3H)-yl)butanamide], the MIC is 0.5 µg/mL (≈ 0.995 µM) against K. pneumoniae A-651, 2 µg/mL (≈ 3.98 µM) against P. aeruginosa ATCC27853 and 0.25 µg/mL (≈ 0.497 µM) against E. coli ATCC25922.

Take `CN1CC(C#CC#Cc2cc3n(c2)C(=O)N(CC[C@](C)(C(=O)NO)S(C)(=O)=O)C3)C1` [Example 30, (2R)—N-hydroxy-2-methyl-4-(6-((1-methylazetidin-3-yl)buta-1,3-diyn-1-yl)-3-oxo-1H-pyrrolo[1,2-c]imidazol-2(3H)-yl)-2-(methylsulfonyl)butanamide]: the MIC against K. pneumoniae A-651, with P. aeruginosa ATCC27853 and against E. coli ATCC25922 was 0.5 µg/mL (≈ 1.16 µM) throughout.

In the case of `C[C@@](CCN1Cc2cc(C#CC#CC3CNC3)cn2C1=O)(C(=O)NOC1CCCCO1)S(C)(=O)=O` (stereo partly drawn) [Example 31, (2R)-4-(6-(azetidin-3-ylbuta-1,3-diyn-1-yl)-3-oxo-1H-pyrrolo[1,2-c]imidazol-2(3H)-yl)-2-methyl-2-(methylsulfonyl)-N-((tetrahydro-2H-pyran-2-yl)oxy)butanamide], in the assay with K. pneumoniae A-651, the “MIC for K. Pneumoniae A-651” value worked out at 8 µg/mL. Also, the “MIC for P. aeruginosa ATCC27853” value against P. aeruginosa ATCC27853 was determined as 1 µg/mL. Moreover, in the assay on E. coli ATCC25922, the “MIC for E. coli ATCC25922” value turned out to be 8 µg/mL.

Take `CC(=O)N1CC(C#CC#Cc2cc3n(c2)C(=O)N(CC[C@](C)(C(=O)NO)S(C)(=O)=O)C3)C1` [Example 32, (2R)-4-(6-((1-acetylazetidin-3-yl)buta-1,3-diyn-1-yl)-3-oxo-1H-pyrrolo[1,2-c]imidazol-2(3H)-yl)-N-hydroxy-2-methyl-2-(methylsulfonyl)butanamide]: the MIC against K. pneumoniae A-651 amounted to 2 µg/mL (≈ 4.34 µM); in the assay on P. aeruginosa ATCC27853, 1 µg/mL (≈ 2.17 µM); against E. coli ATCC25922, 1 µg/mL (≈ 2.17 µM).

Turning to `CN1CC(F)(C#CC#Cc2cc3n(c2)C(=O)N(CC[C@](C)(C(=O)NO)S(C)(=O)=O)C3)C1` [Example 33, (2R)-4-(6-((3-fluoro-1-methylazetidin-3-yl)buta-1,3-diyn-1-yl)-3-oxo-1H-pyrrolo[1,2-c]imidazol-2(3H)-yl)-N-hydroxy-2-methyl-2-(methylsulfonyl)butanamide], the MIC in the assay on K. pneumoniae A-651 is 0.25 µg/mL (≈ 0.555 µM); in the assay on P. aeruginosa ATCC27853, 2 µg/mL (≈ 4.44 µM); in the assay on E. coli ATCC25922, 0.25 µg/mL (≈ 0.555 µM).

Regarding `CN1CCC(C#CC#Cc2cc3n(c2)C(=O)N(CC[C@](C)(C(=O)NO)S(C)(=O)=O)C3)CC1` [Example 34, (2R)—N-hydroxy-2-methyl-4-(6-((1-methylpiperidin-4-yl)buta-1,3-diyn-1-yl)-3-oxo-1H-pyrrolo[1,2-c]imidazol-2(3H)-yl)-2-(methylsulfonyl)butanamide], the MIC stood at 4 µg/mL (≈ 8.69 µM) in the assay on K. pneumoniae A-651, 1 µg/mL (≈ 2.17 µM) against P. aeruginosa ATCC27853 and 4 µg/mL (≈ 8.69 µM) against E. coli ATCC25922.

Take `C[C@@](CCN1Cc2cc(C#CC#CC3CCN(C4COC4)CC3)cn2C1=O)(C(=O)NO)S(C)(=O)=O` [Example 35, (2R)—N-hydroxy-2-methyl-2-(methylsulfonyl)-4-(6-((1-(oxetan-3-yl)piperidin-4-yl)buta-1,3-diyn-1-yl)-3-oxo-1H-pyrrolo[1,2-c]imidazol-2(3H)-yl)butanamide]: the values for the MIC with K. pneumoniae A-651, in the assay with P. aeruginosa ATCC27853 and against E. coli ATCC25922 were 1 µg/mL (≈ 1.99 µM), 2 µg/mL (≈ 3.98 µM) and 0.5 µg/mL (≈ 0.995 µM), respectively.

Take `C[C@@](CCN1Cc2cc(C#Cc3ccc(CN4CC[C@H](O)C(F)(F)C4)cc3)cn2C1=O)(C(=O)NO)S(C)(=O)=O` [Example 37, (2R)-4-(6-((4-(((S)-3,3-difluoro-4-hydroxypiperidin-1-yl)methyl)phenyl)ethynyl)-3-oxo-1H-pyrrolo[1,2-c]imidazol-2(3H)-yl)-N-hydroxy-2-methyl-2-(methylsulfonyl)butanamide]: the MIC in the assay with K. pneumoniae A-651 was determined as 0.5 µg/mL (≈ 0.886 µM); in the assay on P. aeruginosa ATCC27853 it was 2 µg/mL (≈ 3.54 µM); against E. coli ATCC25922, 0.5 µg/mL (≈ 0.886 µM).

For `CNC1(C#CC#Cc2cc3n(c2)C(=O)N(CC[C@](C)(C(=O)NO)S(C)(=O)=O)C3)CC1` [Example 38, (2R)—N-hydroxy-2-methyl-4-(6-((1-(methylamino)cyclopropyl)buta-1,3-diyn-1-yl)-3-oxo-1H-pyrrolo[1,2-c]imidazol-2(3H)-yl)-2-(methylsulfonyl)butanamide], the MIC in the assay on K. pneumoniae A-651 was determined as 0.25 µg/mL (≈ 0.578 µM); in the assay with P. aeruginosa ATCC27853, 0.5 µg/mL (≈ 1.16 µM); in the assay with E. coli ATCC25922, 0.063 µg/mL (≈ 0.146 µM).

For `CN1CC(OC(=O)NCC#CC#Cc2cc3n(c2)C(=O)N(CC[C@](C)(C(=O)NO)S(C)(=O)=O)C3)C1` [Example 39, 1-methylazetidin-3-yl (3R)-(5-(2-(4-(hydroxyamino)-3-methyl-3-(methylsulfonyl)-4-oxobutyl)-3-oxo-2,3-dihydro-1H-pyrrolo[1,2-c]imidazol-6-yl)penta-2,4-diyn-1-yl)carbamate], the results for the MIC against K. pneumoniae A-651, in the assay on P. aeruginosa ATCC27853 and in the assay on E. coli ATCC25922 were 4 µg/mL (≈ 7.91 µM), 4 µg/mL (≈ 7.91 µM) and 8 µg/mL (≈ 15.8 µM), respectively.

Turning to `C[C@@](CCN1Cc2cc(C#CC#CCN3CCC(O)CC3)cn2C1=O)(C(=O)NO)S(C)(=O)=O` [Example 40, (2R)—N-hydroxy-4-(6-(5-(4-hydroxypiperidin-1-yl)penta-1,3-diyn-1-yl)-3-oxo-1H-pyrrolo[1,2-c]imidazol-2(3H)-yl)-2-methyl-2-(methylsulfonyl)butanamide], the MIC in the assay with K. pneumoniae A-651, in the assay with P. aeruginosa ATCC27853 and in the assay on E. coli ATCC25922 was 2 µg/mL (≈ 4.2 µM) each time.

(Values after US10314823B2, “Substituted 1,2-dihydro-3H-pyrrolo[1,2-c]imidazol-3-one antibacterial compounds” (IDORSIA PHARMACEUTICALS LTD, priority 2015, dated 2019).)
